Reference: patent publication US6242445A, “Benzimidazole derivative” (Kureha Chemical Industry Co., Ltd., priority 1998, dated 2001)

Tests used:
[1] = system: kidney disease model rats; assay: Action to kidney diseases, renal function indicatory values; format: in vivo, Sprague-Dawley female rats; details: for Creatinine clearance / blood urea nitrogen value / serum creatinine value / Creatinine / Blood urea nitrogen: 20 mg/kg/day, two weeks; for Creatinine / Blood urea nitrogen: serum; for Creatinine: control 2.0; for Blood urea nitrogen: control 100; for effects on renal function compared with reference substance: vs DuP753
Protocol: The kidney disease model rats were prepared by a ligature of branches of renal artery in accordance with a conventional method. Namely, the left hilum renalis of Sprague-Dawley female rats was exposed under anesthesia, and one of four secondary branches of the renal artery was left unligated, while the remaining three branches were ligated, respectively. After a week, the hilum renalis (artery, vein, and ureter) of the right kidney were further ligated to thereby prepare rats whose renal function was lowered to approximately 1/8 of the normal function. Each group consisted of eight rats. The drugs to be tested (20 mg/kg) were administered to each administering group, and only water was administered to a control group. Two days after the administration, the systolic blood pressure was measured by the tail cuff method using a blood pressure measuring apparatus (UR^5000; Ueda).
In this Example, an action to kidney diseases was evaluated on the basis of a renal function indicatory value.
Fifteen groups (8 rats per group) were prepared in a manner such that there was no major difference between the groups in the serum creatinine value and the blood urea nitrogen value indicating renal function. The rats in each group were allowed to freely take up food and water. […] To the rats in the control group, only water was forcibly orally administered every day. After two weeks, 0.2 ml of blood was collected from the carotid artery of the rats under anesthesia, and centrifuged to obtain serum. Using 25 μl of the serum, the serum creatinine (Scr) was measured by a creatinine analytical instrument (Beckman). Using 10 μl of the serum, the blood urea nitrogen (BUN) was measured by a BUN analytical instrument (Beckman). The creatinine clearance was evaluated as follows:
After the serum creatinine measurement, rats were placed in urinary metabolic cages for 24 hours to collect urine. A urinary creatine concentration (Ucr) was measured by a creatinine analytical instrument, and a total volume of urination (Uvol) was also measured. The creatinine clearance (CCr) was calculated by the following formula: [formula]
In the above formula, the unit of "Ucr" and "Scr" is "mg/ml" and the unit of "Uvol" is "ml".

[2] = system: SHR rats; assay: Action on weight of heart in SHR rats; format: in vivo; details: 20 weeks; for Relative weight ratio / Heart weight / Blood pressure / Body weight: 20 mg/kg oral in drinking solution, average±standard deviation; for Relative weight ratio: control 0.338 ± 0.012; for Heart weight: control 1.430 ± 0.082; for Blood pressure: control 224 ± 49; for Body weight: control 423 ± 17; for heart weight based on hypercardia / lowering of blood pressure / myocardiopathy: 20 mg/kg
Protocol: In this Example, an action on a weight of a heart was evaluated. More particularly, 21-week-old SHR rats were divided into a control group (8 rats) and a test group (7 rats). The rats in the test group were allowed to freely drink a solution prepared by dissolving 2-ethoxy-1-[[4'-(2"-N,N-dimethylamino-ethoxycarbonyl)phenyl]methyl]-1H-benzimidazole-6-carboxylic acid morpholide (Compound No. 13) prepared in Example 6 or 2-ethoxy-1-[[4'-(2'-morpholinoethoxycarbonyl)-phenyl]methyl]-1H-benzimidazole-6-carboxylic acid piperidinamide (Compound No. 57) prepared in Example 28 for 20 weeks (20 mg/kg). After the oral administration was finished, the heart was taken, and the weight of the heart was measured.

Structure (SMILES) | Creatinine clearance ([1]; control 0.22) [mL/min] | Creatinine clearance ([1]; vs control) | blood urea nitrogen value ([1]; vs control) | serum creatinine value ([1]; vs control) | Creatinine [1] [mg/dL] | Blood urea nitrogen [1] [mg/dL] | effects on renal function compared with reference substance [1] | Relative weight ratio [2] [%] | Heart weight [2] [g] | Blood pressure [2] [mmHg] | Body weight [2] [g] | heart weight based on hypercardia [2] | lowering of blood pressure [2] | myocardiopathy [2]
CCOc1nc2ccc(C(=O)N3CCOCC3)cc2n1Cc1ccc(C(=O)OCCN(C)C)cc1 [Compound No. 13, 2-ethoxy-1-[[4'-(2"-N,N-dimethylaminoethoxycarbonyl)phenyl]methyl]-1H-benzimidazole-6-carboxylic acid morpholide] | 0.35 | clearly improved | clearly became lower values | clearly became lower values | 1.5 | 75 | comparable to those of the reference substance | 0.328 ± 0.007 | 1.392 ± 0.034 | 232 ± 12 | 424 | significantly reduced | without inducing a lowering of blood pressure | suppresses myocardiopathy
CCOc1nc2ccc(C(=O)N3CCCCC3)cc2n1Cc1ccc(C(=O)OCCN2CCOCC2)cc1 [Compound No. 57, 2-ethoxy-1-[[4'-(2"-morpholinoethoxycarbonyl)phenyl]methyl]-1H-benzimidazole-6-carboxylic acid piperidinamide] | 0.33 | clearly improved | clearly became lower values | clearly became lower values | 1.5 | 72 | comparable to those of the reference substance | 0.324 ± 0.012 | 1.390 ± 0.077 | 207 ± 14 | 429 | significantly reduced | without inducing a lowering of blood pressure | suppresses myocardiopathy
